Experimental findings from patent US7423054B2, “Therapeutic pyrazolo[3,4-b]pyridines and indazoles” (Warner Lambert Company LLC, priority 2004, dated 2008) are described below.

pKi: −log10 of the molar value. Counter-ions that a name gives are not always drawn. Like-named read-outs stand apart in the source and are kept apart here.

Experiment [1] deals with T1, human norepinephrine transporter (hNET) (Homo sapiens, UniProt P23975).
T1 construct: expressed in transfected cells; host or cells: HEK-293 cells (membrane preparation)
Put plainly: hNET receptor binding ([125I]-RTI-55 displacement, membranes of transfected HEK-293 cells). Conditions: HEK-293 membranes, Ki from IC50 by Cheng-Prusoff, read-out: NET Ki. The method, boiled down: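 Membranes from HEK-293 cells expressing human NET were incubated 90 min at room temperature with 50 pM [125I]-RTI-55 and compound (10^−5 to 10^−12 M) in Krebs-HEPES buffer, pH 7.4. Bound radioligand was counted after filtration, with nonspecific binding defined by 10 μM desipramine. IC50 was converted to Ki by Cheng-Prusoff.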

The target of experiment [2] is T2, human serotonin transporter (hSERT) (Homo sapiens, UniProt P31645).
T2 construct: expressed in transfected cells; host or cells: HEK-293 cells (membrane preparation)
Nature of the experiment: hSERT receptor binding ([125I]-RTI-55 displacement, membranes of transfected HEK-293 cells). Conditions: HEK-293 membranes, Ki from IC50 by Cheng-Prusoff, read-out: SERT Ki. In a few lines: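 Membranes from HEK-293 cells expressing human SERT were incubated 90 min at room temperature in Krebs-HEPES (pH 7.4) with 50 pM [125I]-RTI-55 and compound (10^-12 to 10^-5 M), in duplicate. Nonspecific binding was defined with 10 μM citalopram. Ki from IC50 by Cheng-Prusoff.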

Experiment [3] relates to capsaicin-induced mechanical allodynia. Put plainly: Rat model of capsaicin-induced mechanical allodynia (paw withdrawal threshold, Von Frey). It is filed as in vivo. Particulars: for inhibition in vivo at 10 mg/kg: Rattus norvegicus, po, 2 h, read-out: % inhibition +/− SEM. Here is the method:
In certain embodiments, the compounds of formula I may be assayed for their ability to alleviate capsaicin-induced mechanical allodynia in a rat (e.g., Sluka, K A, (2002) J of Neuroscience, 22(13): 5687-5693). For example, a rat model of capsaicin-induced mechanical allodynia) can be carried out as follows:
On day 0, male Sprague-Dawley rats (˜150 g) in the dark cycle are placed in suspended wire-bottom cages and allowed to acclimate for 0.5 h in a darkened, quiet room. The day 0 paw withdrawal threshold (PWT) is determined on the left hind paw by Von Frey hair assessment using the Dixon up and down method. After assessment, the plantar muscle of the right hind paw is injected with 100 μl capsaicin (0.25% in 10% ethanol, 10% Tween 80, in sterile saline). On day 6 the PWT of the left hindpaw (contralateral from injection site) is determined for each animal. Animals from the day 6 prereads with PWT≦11.7 g are considered allodynic responders and are regrouped so that each cage had similar mean PWT values. On day 7, responders are dosed (e.g., orally, intraperitoneally, and subcutaneously, etc.) with 10 ml/kg vehicle (0.5% HPMC(hydroxy-propylmethylcellulose)/0.2% Tween™ 80), or vehicle plus compound. The contralateral PWT values are determined at 2 hours (or at about the time corresponding to the estimated Cmax) after the single dose, with the investigator blinded to the dosing scheme. Those of skill in the art can determine the appropriate time to determine the contralateral PWT value (e.g., 1 hour, 2 hours, etc.).
For each animal, the day 6 PWT value is subtracted from the 2 hour PWT value to give a delta PWT value that represents the change in PWT due to the 2 hour drug treatment. In addition, the day 6 PWT is subtracted from the day 0 PWT to give the baseline window of allodynia present in each animal. To determine % inhibition of allodynia of each animal normalized for vehicle controls, the following formula is used: % Inhibition of Allodynia=100×(Delta PWT(drug)−mean Delta PWT(vehicle))/(Baseline−mean Delta PWT(vehicle)). Pharmaceutically Acceptable Salts and Solvates
Compounds of the present invention may be assayed for their ability to alleviate capsaicin-induced mechanical allodynia in a rat model (e.g., Sluka (2002) J of Neuroscience, 22(13)5687-5693). For example, a rat model of capsaicin-induced mechanical allodynia was carried out as follows:
On day 0, male Sprague-Dawley rats (˜150 g) in the dark cycle were placed in suspended wire-bottom cages and allowed to acclimate for 0.5 hour in a darkened, quiet room. The day 0 paw withdrawal threshold (PWT) was determined on the left hind paw by Von Frey hair assessment using the Dixon up and down method. After assessment, the plantar muscle of the right hind paw was injected with 100 μl capsaicin (0.25% (w/v) in 10% ethanol, 10% Tween 80, in sterile saline). On day 6 the PWT of the left hindpaw (contralateral from injection site) was determined for each animal. Animals from the day 6 prereads with PWT≦11.7 g were considered allodynic responders and were regrouped so that each cage had similar mean PWT values.
On day 7, responders were dosed subcutaneously with 30 mg of the compound of Example 7/kg body weight, 10 mg of the compound of the compound of Example 48/kg body weight, or with vehicle alone. The vehicle was phosphate buffered saline containing 2% Cremophor®) EL (BASF).
For the animals dosed with the compound of Example 7, the contralateral PWT values were determined at 2 hour after the single dose, with the investigator blinded to the dosing scheme.
For each animal, the day 6 PWT value was subtracted from the 2 hour PWT value for the 10 mg/kg doses to give a delta PWT value that represents the change in PWT due to the […] drug treatment. In addition, the day 6 PWT was subtracted from the day 0 PWT to give the baseline window of allodynia present in each animal. […]

Setting [4] is: male Sprague-Dawley rats, oral single dose 10 mg/kg, contralateral PWT at 2 hours after dose, mean of eight animals.

T1 sequence (P23975 whole entry): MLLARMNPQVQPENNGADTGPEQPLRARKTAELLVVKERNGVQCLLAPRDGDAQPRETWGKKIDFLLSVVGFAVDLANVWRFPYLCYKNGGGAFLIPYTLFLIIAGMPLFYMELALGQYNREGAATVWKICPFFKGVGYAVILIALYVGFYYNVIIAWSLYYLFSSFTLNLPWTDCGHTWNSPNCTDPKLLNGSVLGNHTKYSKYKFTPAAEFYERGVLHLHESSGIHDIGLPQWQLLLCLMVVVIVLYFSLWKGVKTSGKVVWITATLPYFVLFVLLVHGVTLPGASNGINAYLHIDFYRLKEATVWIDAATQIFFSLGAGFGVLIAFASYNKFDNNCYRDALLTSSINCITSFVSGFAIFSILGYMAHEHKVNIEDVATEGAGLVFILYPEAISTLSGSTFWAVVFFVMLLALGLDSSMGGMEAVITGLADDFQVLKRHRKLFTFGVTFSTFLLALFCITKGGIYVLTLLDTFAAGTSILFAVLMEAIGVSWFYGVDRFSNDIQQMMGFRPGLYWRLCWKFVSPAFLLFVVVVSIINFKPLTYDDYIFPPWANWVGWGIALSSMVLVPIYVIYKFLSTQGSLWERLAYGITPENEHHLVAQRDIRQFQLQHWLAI
T2 sequence (P31645 whole entry): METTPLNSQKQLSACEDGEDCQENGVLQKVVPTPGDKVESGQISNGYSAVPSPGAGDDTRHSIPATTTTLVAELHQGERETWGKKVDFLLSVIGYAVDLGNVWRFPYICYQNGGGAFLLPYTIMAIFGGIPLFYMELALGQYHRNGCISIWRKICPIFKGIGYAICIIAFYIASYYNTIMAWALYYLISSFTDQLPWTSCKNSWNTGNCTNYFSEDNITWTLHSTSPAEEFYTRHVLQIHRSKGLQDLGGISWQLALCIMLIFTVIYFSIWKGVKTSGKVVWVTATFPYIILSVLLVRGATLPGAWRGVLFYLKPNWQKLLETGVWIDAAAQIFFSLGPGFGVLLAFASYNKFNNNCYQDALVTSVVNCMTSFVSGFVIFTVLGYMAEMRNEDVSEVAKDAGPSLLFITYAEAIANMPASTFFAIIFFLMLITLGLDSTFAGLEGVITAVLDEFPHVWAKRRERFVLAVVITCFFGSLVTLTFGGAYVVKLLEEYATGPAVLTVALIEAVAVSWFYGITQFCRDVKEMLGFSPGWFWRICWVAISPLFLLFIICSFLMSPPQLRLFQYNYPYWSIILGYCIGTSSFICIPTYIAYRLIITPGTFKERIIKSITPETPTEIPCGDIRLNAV

For the compound `Fc1ccc(F)c(-n2nc(OCC3CCCNC3)c3ccccc32)c1` (racemic) [Example 31, (±)-1-(2,5-Difluoro-phenyl)-3-(piperidin-3-ylmethoxy)-1H-indazole hydrochloride], the pKi is 8.18 in experiment [1] and 6.87 in experiment [2]. The inhibition in vivo at 10 mg/kg in experiment [3] (setting [4]) was 47%.

Turning to `Fc1ccc2c(c1)c(OCC1CCCNC1)nn2-c1ccccc1F` (racemic) [Example 57, (±)-5-Fluoro-1-(2-fluoro-phenyl)-3-(piperidin-3-ylmethoxy)-1H-indazole hydrochloride], the figures for the pKi in experiment [1] and in experiment [2] were 7.74 and 7.28, respectively. Further, the inhibition in vivo at 10 mg/kg in experiment [3] (setting [4]) was found to be 26%.

`Fc1ccccc1-n1nc(OC2CCNCC2)c2ccccc21` [Example 1, 1-(2-Fluorophenyl)-3-(piperidin-4-yloxy)-1H-indazole hydrochloride]: the negative-log Ki (pKi) in experiment [1] was 8.50; in experiment [2], 7.29. The inhibition in vivo at 10 mg/kg in experiment [3] was determined as 67.7%.

Regarding `Cl.Fc1ccccc1-n1nc(OC[C@H]2CCNC2)c2ccccc21` [Example 7, (S)-(−)-1-(2-Fluorophenyl)-3-(pyrrolidin-3-ylmethoxy)-1H-indazole hydrochloride], the pKi in experiment [1] was 8.28; in experiment [2], 7.26. The inhibition in vivo at 10 mg/kg in experiment [3] (setting [4]) turned out to be 12.2%. In addition, the “% Inhibition of Allodynia +/− SEM” value in experiment [3] (male Sprague-Dawley rats, subcutaneous single dose 30 mg/kg, contralateral PWT at 2 hour after dose, mean of eight animals) is listed as 71.5 +/− 4.6%.

`Fc1ccc(-n2nc(OC[C@H]3CCNC3)c3ccccc32)c(F)c1` [Example 8, (S)-1-(2,4-Difluoro-phenyl)-3-(pyrrolidin-3-ylmethoxy)-1H-indazole hydrochloride]: the pKi in experiment [1] was 8.28; in experiment [2] it was 7.41. For the same compound, the inhibition in vivo at 10 mg/kg in experiment [3] (setting [4]) worked out at 11.5%.

Consider `Fc1ccc(-n2nc(OC[C@@H]3CCNC3)c3ccccc32)c(F)c1` [Example 9, (R)-1-(2,4-Difluoro-phenyl)-3-(pyrrolidin-3-ylmethoxy)-1H-indazole hydrochloride], for which the pKi in experiment [1] is 8.25; in experiment [2], 7.09. In addition, the inhibition in vivo at 10 mg/kg in experiment [3] (setting [4]) turned out to be 34.1%.

Consider `c1ccc(-n2nc(OC[C@@H]3CCNC3)c3ccccc32)cc1` [Example 14, (R)-1-Phenyl-3-(pyrrolidin-3-ylmethoxy)-1H-indazole hydrochloride], for which the values for the pKi in experiment [1] and in experiment [2] were 7.88 and 7.00, respectively. The inhibition in vivo at 10 mg/kg in experiment [3] (setting [4]) was 30.8%.

Take `c1ccc(-n2nc(OC3CCNCC3)c3ccccc32)cc1` [Example 20, 1-Phenyl-3-(piperidin-4-yloxy)-1H-indazole hydrochloride]: the figures for the pKi in experiment [1] and in experiment [2] were 7.70 and 6.91, respectively. The inhibition in vivo at 10 mg/kg in experiment [3] (setting [4]) turned out to be 41.1%.

As to `Fc1ccc(F)c(-n2nc(OC3CCNCC3)c3ccccc32)c1` [Example 27, 1-(2,5-Difluoro-phenyl)-3-(piperidin-4-yloxy)-1H-indazole hydrochloride], the pKi in experiment [1] is 8.20; in experiment [2], 7.37. Further, in experiment [3] (setting [4]), the inhibition in vivo at 10 mg/kg stood at 27%.

On to `Fc1ccc(F)c(-n2nc(OC[C@@H]3CCNC3)c3ccccc32)c1` [Example 30, (R)-1-(2,5-Difluoro-phenyl)-3-(pyrrolidin-3-ylmethoxy)-1H-indazole hydrochloride], for which the pKi in experiment [1] is 8.35; in experiment [2], 7.19. Also, the inhibition in vivo at 10 mg/kg in experiment [3] (setting [4]) was found to be 68%.

Regarding `Fc1ccc(F)c(-n2nc(OC[C@H]3CCNC3)c3ccccc32)c1` [Example 32, (S)-1-(2,5-Difluoro-phenyl)-3-(pyrrolidin-3-ylmethoxy)-1H-indazole hydrochloride], the results for the pKi in experiment [1] and in experiment [2] were 8.47 and 7.47, respectively. The inhibition in vivo at 10 mg/kg in experiment [3] (setting [4]) worked out at 60.7%.

For the compound `Fc1ccc(-n2nc(OC3CCNCC3)c3ccccc32)cc1` [Example 42, 1-(4-Fluoro-phenyl)-3-(piperidin-4-yloxy)-1H-indazole hydrochloride], the results for the pKi in experiment [1] and in experiment [2] were 7.59 and 7.09, respectively. In addition, in experiment [3] (setting [4]), the inhibition in vivo at 10 mg/kg came out at 31.7%.

Turning to `Fc1cccc(-n2nc(OC3CCNCC3)c3ccccc32)c1` [Example 43, 1-(3-Fluoro-phenyl)-3-(piperidin-4-yloxy)-1H-indazole hydrochloride], the pKi in experiment [1] was 7.75; in experiment [2] it was 6.86. Moreover, the inhibition in vivo at 10 mg/kg in experiment [3] (setting [4]) is 55.4%.

As for `Fc1ccc2c(c1)c(OC[C@H]1CCCNC1)nn2-c1ccccc1F` [Example 45, (S)-(−)-5-Fluoro-1-(2-fluorophenyl)-3-(piperidin-3-ylmethoxy)-1H-indazole maleate], the pKi was 8.49 in experiment [1] and 7.32 in experiment [2]. The inhibition in vivo at 10 mg/kg in experiment [3] (setting [4]) worked out at 46.2%.

In the case of `Fc1ccc(-n2nc(OC[C@@H]3CNCCO3)c3cc(F)ccc32)c(F)c1.O=C(O)/C=C\C(=O)O` [Example 48, (S)-(+)-1-(2,4-Difluorophenyl)-5-fluoro-3-(morpholin-2-ylmethoxy)-1H-indazole maleate], the figures for the pKi in experiment [1] and in experiment [2] were 7.99 and 6.53, respectively. Besides, the “% Inhibition of Allodynia +/− SEM” value in experiment [3] (male Sprague-Dawley rats, subcutaneous single dose 10 mg/kg, contralateral PWT at 1 hour after dose, mean of eight animals) is reported as 74.9% +/− 14.8.

`Fc1ccc2c(c1)c(OC1CCNCC1)nn2-c1ccccc1F` [Example 51, 5-Fluoro-1-(2-fluoro-phenyl)-3-(piperidin-4-yloxy)-1H-indazole hydrochloride]: the negative logarithm of the Ki (pKi) is 7.93 in experiment [1] and 7.27 in experiment [2]. Further, the inhibition in vivo at 10 mg/kg in experiment [3] (setting [4]) was 26%.

For `Fc1ccc(-n2nc(OC3CCNCC3)c3cc(F)ccc32)c(F)c1` [Example 56, 1-(2,4-Difluoro-phenyl)-5-fluoro-3-(piperidin-4-yloxy)-1H-indazole hydrochloride], the values for the pKi in experiment [1] and in experiment [2] were 8.21 and 8.00, respectively. In addition, the inhibition in vivo at 10 mg/kg in experiment [3] (setting [4]) was 11%.

For `Fc1cccc(F)c1-n1nc(OC2CCNCC2)c2c(F)cccc21` [Example 109, 1-(2,6-Difluoro-phenyl)-4-fluoro-3-(piperidin-4-yloxy)-1H-indazole hydrochloride], the results for the pKi in experiment [1] and in experiment [2] were 7.34 and 6.55, respectively.

As to `Fc1cccc(F)c1-n1nc(OC[C@H]2CCCNC2)c2c(F)cccc21` [Example 110, (S)-1-(2,6-Difluorophenyl)-4-fluoro-3-(piperidin-3-ylmethoxy)-1H-indazole hydrochloride], the pKi in experiment [1] was 7.79; in experiment [2], 6.37.

In the case of “(S)-1-(2,6-Difluoro-phenyl)-3-(morpholin-2-ylmethoxy)-1H-indazole hydrochloride [Example 24]”, the pKi in experiment [1] is 8.02; in experiment [2], 5.27.

Take “(S)-(−)-5-Fluoro-1-(2-fluorophenyl)-3-(piperidin-3-ylmethoxy)-1H-indazole hydrochloride [Example 47]”: the pKi is 7.89 in experiment [1] and 7.33 in experiment [2].

One may read the pKi as the Ki on a negative log10 scale, so that one unit is a factor of ten.
